Assay results taken from patent publication US10321684B2, “Use of 9-beta-D-adenosine to increase crop production” (The Regents of the University of California, priority 2009, dated 2019).

Assays:
Assay type in all cases: in vivo
[1] = test system: 'Hass' avocado trees bearing an on-crop; assay: Trunk injection: spring bloom (bud break) of on-crop avocado trees; details: for Floral (with fruit), No. of shoots per 100 nodes / Floral (w/o fruit), No. of shoots per 100 nodes / Determinate Floral, No. of shoots per 100 nodes / Indeterminate Floral, No. of shoots per 100 nodes / Floral, No. of shoots per 100 nodes: 1 g/tree trunk injection in Jan; for Floral (with fruit), No. of shoots per 100 nodes: branches with fruit; for Floral (w/o fruit), No. of shoots per 100 nodes: branches without fruit; for Determinate Floral, No. of shoots per 100 nodes / Indeterminate Floral, No. of shoots per 100 nodes / Floral, No. of shoots per 100 nodes: counted at spring bloom; for Floral, No. of shoots per 100 nodes: total floral shoots
Protocol: This example describes the use of adenosine to increase spring bud break of ‘Hass’ avocado trees to increase floral intensity and avocado production. Increased bud break was achieved via trunk injection of adenosine (9-beta-D-adenosine) obtained from Sigma Chemical Co. (Catalog No. A9251), alone or with a plant growth regulator. The following treatments were injected (1 g/tree) in mid-January into the trunk of on-crop ‘Hass’ avocado trees in a commercial orchard in Irvine, Calif.: (1) adenosine (Sigma); (2) 6-BA (Sigma); (3) GA3 (ProGibb 40%, Valent BioSciences Corp.); (4) TIBA (Sigma), and (5) TIBA plus adenosine. Each material was supplied at the rate of 1 g per tree dissolved in 50 to 60 ml distilled water using two plastic syringes per tree. There were five individual tree replicates per treatment, including (6) untreated on-crop control trees. For each tree, branches (12 inches long), 1 with fruit and 1 branch without fruit in each of the four tree quadrants, were tagged.

[2] = test system: tomato plants (cv. Supersweet 100); assay: Adenosine by irrigation: vegetative and reproductive growth of tomato plants; details: irrigation daily
Protocol: This example describes the increase in fruit production by tomato plants (cv. Supersweet 100), achieved via application of adenosine by irrigation. Adenosine (9-beta-D-adenosine) obtained from Sigma Chemical Co. (Catalog No. A9251) was applied in a sufficient amount of distilled water to move the material into the root zone of ‘Supersweet 100’ tomato plants. Plants receiving treatments 2 and 3 were treated once every 10 days. Plants receiving treatments 4, 5, 6, and 7 were treated daily. The total amount of cytokinin or adenosine received by plants in each treatment by the end of experiment (75 days after planting) is given in parenthesis in the Table 1-1 below. The IPA concentration of the vermicompost tea was determined by radioimmunoassay.

[3] = test system: 'Fina Sodea' Clementine mandarin trees; assay: Adenosine by foliar spray (canopy application): fruit number, yield and value of mandarin trees
Protocol: This example describes the increase in the number and yield of commercially valuable fruit of Clementine mandarin trees achieved by canopy application of adenosine. Adenosine (9-beta-D-adenosine) obtained from Sigma Chemical Co. (Catalog No. A9251) was applied (25 mg/L in 250 gallons of water per acre; 23.66 g/acre) with a 400 psi handgun sprayer one time at maximum peel thickness, which marks the end of the cell division stage of citrus fruit development, to ‘Fina Sodea’ Clementine mandarin trees.

Row | SMILES | Floral (with fruit), No. of shoots per 100 nodes [1] | Floral (w/o fruit), No. of shoots per 100 nodes [1] [shoots per 100 nodes] | Determinate Floral, No. of shoots per 100 nodes [1] | Indeterminate Floral, No. of shoots per 100 nodes [1] [shoots per 100 nodes] | Floral, No. of shoots per 100 nodes [1] | # Fruit, average value per plant ([2]; total 0.35 μg by 75 days) | # Fruiting shoots, average value per plant ([2]; total 0.35 μg by 75 days) | # Leaves, average value per plant ([2]; total 0.35 μg by 75 days) | # Veg. shoots, average value per plant ([2]; total 0.35 μg by 75 days) | Fruit diameter ([2]; total 0.35 μg by 75 days) | Main Shoot (mm), average value per plant ([2]; total 0.35 μg by 75 days) [mm] | Tap Root (mm), average value per plant ([2]; total 0.35 μg by 75 days) [mm] | further results
1 | O=C(O)c1cc(I)cc(I)c1I [TIBA, 2,3,5-triiodobenzoic acid] | 11 ab shoots per 100 nodes | 8 | 1 b shoots per 100 nodes | 8 | 9 b shoots per 100 nodes |  |  |  |  |  |  |  | 
2 | Nc1ncnc2c1ncn2[C@@H]1O[C@H](CO)[C@@H](O)[C@H]1O [Adenosine, 9-beta-D-adenosine] | 8 abc shoots per 100 nodes | 10 | 3 ab shoots per 100 nodes | 7 | 10 ab shoots per 100 nodes | 15 a | 17.60 a | 111 a | 38.00 a | 24.13 a mm | 74.00 | 28.00 | number of floral shoots compared to the untreated on-crop control trees ([1]; single trunk injection in January): not significantly different; effect on length of the main shoot or the tap root ([2]; total 0.35 μg by 75 days): did not significantly alter; more leaves than untreated control plants ([2]; total 0.35 μg by 75 days): 2.85 fold; net increase in the number of fruit per plant over the untreated control ([2]; total 0.35 μg by 75 days): 87.5%; increase of average size of individual tomato fruit over untreated control ([2]; total 0.35 μg by 75 days, transverse diameter): 61%; Total kg/tree, Medium ([3]; 25 mg/L once at maximum peel thickness, 3-year cumulative yield, diameter 50.81-57.15 mm): 37.00 kg/tree; net increase in total fruit number ([3]; adenosine applied at maximum peel thickness, numerical (non-significant)): 12,460 fruit/200 trees/acre/3 years; effect on fruit quality ([3]; any year of the 3-year study): did not have a negative effect; juice acid of fruit from treated trees ([3]; year three of the study, P=0.0163): significantly reduced; total soluble solids to acid ratio of the juice ([3]; year three of the study, P=0.0570): higher
3 | C=C1C[C@]23C[C@@]1(O)CC[C@H]2[C@@]12C=C[C@H](O)[C@@](C)(C(=O)O1)[C@H]2[C@@H]3C(=O)O [GA3, gibberrillic acid] | 6 bc shoots per 100 nodes | 8 | 2 b shoots per 100 nodes | 6 | 7 b shoots per 100 nodes |  |  |  |  |  |  |  | 
4 | CC(C)=CCNc1ncnc2nc[nH]c12 [IPA, isopentenyladenine] |  |  |  |  |  | 10 bc | 11.60 cd | 87 c | 30.80 c | 19.92 c mm | 81.00 | 20.25 | # Fruit, average value per plant ([2]; total 0.035 μg by 75 days): 13 ab; # Fruiting shoots, average value per plant ([2]; total 0.035 μg by 75 days): 12.40 bc; # Leaves, average value per plant ([2]; total 0.035 μg by 75 days): 99 abc; # Veg. shoots, average value per plant ([2]; total 0.035 μg by 75 days): 30.20 c; Fruit diameter ([2]; total 0.035 μg by 75 days): 21.81 b mm; Main Shoot (mm), average value per plant ([2]; total 0.035 μg by 75 days): 73.75 mm; Tap Root (mm), average value per plant ([2]; total 0.035 μg by 75 days): 25.50 mm
